# Data taken from paper PMC11853949 (European journal of medicinal chemistry, 2025).
# Tested on: Vγ9Vδ2 T cells exposed to compound-loaded K562 cells
# Experiment: Vγ9Vδ2 T cell interferon γ ELISA with compound-loaded K562 cells
# Assay type: cell-based, human
# Details: versus aryl amidate range 110-230 nM
compound,measurement,value
"C/C(=C\CCP(=O)(OCOC(=O)c1cn(-c2ccc(F)cc2)nn1)Oc1ccccc1)CO (stereo not shown) [Compound 25b, (E)-(((5-Hydroxy-4-methylpent-3-en-1-yl)(phenoxy)phosphoryl)oxy)methyl-1-(4-fluorophenyl)-1H-1,2,3-triazole-4-carboxylate]",fold more active than aryl amidates (1 hour cytokine EC50),more than 100 fold
